# US10632144B2, “Low polydispersity, low molecular weight biotechnological chondroitin sulfate with anti-inflammatory and antiarthritis activity and use thereof in the prevention of osteoarthritis” (Gnosis S.p.A., priority 2012, dated 2020)
# Assays:
# [1] = test system: auxotrophic strains of E. coli; experiment: Bacterial reverse mutation test (OECD 471); type: cell-based
# Method: (§1) The CS according to the invention was also tested for its toxicological safety in animals and on cell cultures according to various protocols designed to assess its potential genotoxicity at cell level and acute oral toxicity in the rat. All the tests used were validated and conducted according to OECD guidelines for pharmaceutical products.
# (§2) The biotechnological CS was subjected to mutagenesis tests in bacterial cells (bacterial reverse mutation, Ref. OECD 471) which tested the ability of the product to induce the appearance of reverse mutants in auxotrophic strains of E. coli and Salmonella typhimurium.
# [2] = test system: auxotrophic strains of Salmonella typhimurium; experiment: Bacterial reverse mutation test (OECD 471); type: cell-based
# Method: as §1, §2
# C reactive protein (CRP) = experiment: AA rat model, biotech vs animal LMW-CS: CRP plasma levels; type: in vivo, male Lewis rats
# Method: (§3) As described in Example 5, commercial (high-molecular-weight) chondroitin sulfate material was subjected to depolymerization according to Cho, under controlled condition, until the desired mean MW was reached.
# (§4) The product of Example 5 was tested in vivo vs. biotechnological chondroitin of the invention obtained as described in Ex. 4 (equivalent to the product obtained from any of the Examples 1, 2 or 3).
# (§5) Two key parameters were analyzed to determine the efficacy of the treatment in reducing the inflammation related to osteoarthritis: C reactive protein (CRP) and interleukin-6 (IL-6) plasma levels. […] CRP is another important marker for systemic inflammation, its plasmatic level rises up during arthritis progression. AA was induced in male Lewis rats with a single intradermal injection of heat-inactivated Mycobacterium butyricum in […] Freund's adjuvant. The following anti-osteoarthritic treatment consisted in daily oral (900 mg/kg b.w.) administrations of LMW-CS starting from day 0, i.e. the day of bacterial inoculation.
# [3] = test system: rats with Adjuvant Arthritis (AA); experiment: Adjuvant arthritis (AA) in rats: change in body weight; type: in vivo, male Lewis rats; conditions: for increase in body weight relative to that of the healthy controls: 900 mg/kg/day, end of the study
# Method: (§6) AA was induced by a single intradermal injection of Mycobacterium butyricum in […] Freund's adjuvant. The study involved one group of healthy animals (HC), one group of untreated arthritic animals (AC) and two groups of arthritic animals treated with two different regimens. The first treatment regimen involved pre-treatment consisting of administration of 900 mg/kg of biotechnological CS a day for 14 days before arthritis was induced, continuing for 28 days after the induction of AA (PT). The second treatment regimen involved the administration of 900 mg/kg of biotechnological CS a day only during the 28 days after induction of AA (T).
# (§7) 40 male Lewis rats weighing between 150 and 190 g were divided at random into four groups of 10 animals each, housed in polypropylene cages in an environment maintained at the temperature of 22±2° C., and fed on a standard laboratory diet with unlimited access to water.
# (§8) The experimental groups were as follows:
# (§9) 3) A group of arthritic rats orally treated with biotechnological CS at the dose of 900 mg/day per kg of body weight for 28 days after induction of AA (days 0-28 of the experiment) (T).
# (§10) 4) A group orally pre-treated with biotechnological CS at the dose of 900 mg/day per kg of body weight for 14 days preceding the induction of AA, and for the 28 days after induction of AA (days −14 to 28 of the experiment) (PT).
# (§11) The CS of the invention was dissolved in distilled water at the concentration of 20 mg/ml and administered orally as a single daily dose by gavage.
# The body weight of the rats was measured before induction of AA (day 0), on days 7, 14 and 21, and at the end of the treatment (day 28). The effect of the treatment on this parameter was evaluated by comparing the weight increases of the different groups during the treatment period.
# interleukin-6 (IL-6) = experiment: AA rat model, biotech vs animal LMW-CS: IL-6 plasma levels; type: in vivo, male Lewis rats
# Method: as §3, §4, §5
# Sprague-Dawley rats = experiment: Acute toxicity after oral administration; type: in vivo; conditions: up to 2000 mg/kg body weight
# Method: as §1
# Finally, acute toxicity after oral administration was examined in Sprague-Dawley rats up to the dose of 2000 mg/kg of body weight.
# [4] = test system: rats with Adjuvant Arthritis (AA); experiment: Adjuvant arthritis (AA) in rats: hind paw oedema; type: in vivo, male Lewis rats
# Method: as §6, §7, §8, §9, §10, §11
# The oedema that developed as a consequence of arthritis was measured by observing the increase in volume of the hind paw with a caliper suitable for the measurement. The measurements were performed before the induction of AA (day 0) and on days 7, 14, 21 and 28 of the study.
# The data were expressed as the percentage increase in oedema calculated with the following formula: [(Dayn/Day0)×100]−100, Day0 being the measurement on the initial day and Dayn the measurement on the day considered.
# [5] = test system: rats with Adjuvant Arthritis (AA); experiment: Adjuvant arthritis (AA) in rats: arthritis score; type: in vivo, male Lewis rats; parameters: key to Arthritis score: sum of oedema (1-8), forepaw diameter (1-5), scab diameter (1-5) scores
# Method: as §6, §7, §8, §9, §10, §11
# The arthritis score was evaluated by allocating a score to the observation of paw joint swelling (oedema), the extent of periarticular erythema and the diameter of the scab at the adjuvant injection site at the base of the tail. The arthritis score or arthrogram was measured as the sum total of oedema (in ml, score 1 to 8), plus the diameter of the forepaw (in mm, max score 1 to 5), plus the diameter of the scab at the site of application of Mycobacterium butyricum measured parallel to the spinal column (in mm, max score 1 to 5), for each animal.
# [6] = daily oral 900 mg/kg b.w. from day 0, day 14
# [7] = daily oral 900 mg/kg b.w., 14 days of treatment
# [8] = Pre-Treatment (PT): 900 mg/kg/day oral, days −14 to 28, day 0
# [9] = Pre-Treatment (PT): 900 mg/kg/day oral, days −14 to 28, day 7
# [10] = Pre-Treatment (PT): 900 mg/kg/day oral, days −14 to 28, day 14
# [11] = Pre-Treatment (PT): 900 mg/kg/day oral, days −14 to 28, day 21
# [12] = Pre-Treatment (PT): 900 mg/kg/day oral, days −14 to 28, day 28
# [13] = Treatment (T): 900 mg/kg/day oral, days 0-28, day 0
# [14] = Treatment (T): 900 mg/kg/day oral, days 0-28, day 7
# [15] = Treatment (T): 900 mg/kg/day oral, days 0-28, day 14
# [16] = Treatment (T): 900 mg/kg/day oral, days 0-28, day 21
# [17] = Treatment (T): 900 mg/kg/day oral, days 0-28, day 28
substance,measurement,setting,value
Low-molecular-weight chondroitin sulfate sodium salt [LMW-CS],bacterial mutagenicity (reverse mutants),[1],No significant increase
same,bacterial mutagenicity (reverse mutants),[2],No significant increase
same,CRP plasma levels,C reactive protein (CRP); [6],548.8 µg/mL
same,effect of treatment on CRP plasma levels,C reactive protein (CRP); [7],decreased
same,Change in body weight: Δ(dayn − day0),[3]; [8],0.0 g
same,Change in body weight: Δ(dayn − day0),[3]; [9],92.96 g
same,Change in body weight: Δ(dayn − day0),[3]; [10],107.26 g
same,Change in body weight: Δ(dayn − day0),[3]; [11],93.39 g
same,Change in body weight: Δ(dayn − day0),[3]; [12],108.63 g
same,increase in body weight relative to that of the healthy controls,[3]; Pre-treatment (PT),73%
same,Change in body weight: Δ(dayn − day0),[3]; [13],0.0 g
same,Change in body weight: Δ(dayn − day0),[3]; [14],85.19 g
same,Change in body weight: Δ(dayn − day0),[3]; [15],89.19 g
same,Change in body weight: Δ(dayn − day0),[3]; [16],68.39 g
same,Change in body weight: Δ(dayn − day0),[3]; [17],79.78 g
same,increase in body weight relative to that of the healthy controls,[3]; Treatment alone (T),54%
same,IL-6 plasma levels,interleukin-6 (IL-6); [6],233.9 pg/mL
same,effect of treatment on IL-6 plasma levels,interleukin-6 (IL-6); [7],decreased
same,clinical signs,Sprague-Dawley rats; 14 days observation,did not show any clinical signs of suffering
same,mortality,Sprague-Dawley rats; 14 days observation,no mortality occurred
same,autopsy of tissues and organs,Sprague-Dawley rats; end of the study,did not indicate any signs of toxicity
same,Change in hind paw swelling: [(Dayn/Day0) × 100] − 100,[4]; [8],0.0%
same,Change in hind paw swelling: [(Dayn/Day0) × 100] − 100,[4]; [9],15.4%
same,Change in hind paw swelling: [(Dayn/Day0) × 100] − 100,[4]; [10],26.7%
same,Change in hind paw swelling: [(Dayn/Day0) × 100] − 100,[4]; [11],46.5%
same,Change in hind paw swelling: [(Dayn/Day0) × 100] − 100,[4]; [12],49.7%
same,oedema developed in the hind paw vs untreated controls,"[4]; Pre-treated animals (PT), 900 mg/kg/day",significantly reduced
same,Change in hind paw swelling: [(Dayn/Day0) × 100] − 100,[4]; [13],0.0%
same,Change in hind paw swelling: [(Dayn/Day0) × 100] − 100,[4]; [14],13.1%
same,Change in hind paw swelling: [(Dayn/Day0) × 100] − 100,[4]; [15],34.5%
same,Change in hind paw swelling: [(Dayn/Day0) × 100] − 100,[4]; [16],62.8%
same,Change in hind paw swelling: [(Dayn/Day0) × 100] − 100,[4]; [17],61.4%
same,Arthritis score,[5]; [8],10.0
same,Arthritis score,[5]; [9],10.1
same,Arthritis score,[5]; [10],13.1
same,Arthritis score,[5]; [11],15.8
same,Arthritis score,"[5]; Pre-Treatment (PT): 900 mg/kg/day oral, days −14 to 28, day 28, listed as biotechnological CS, sulfate sodium salt",19
same,Arthritis score,"[5]; Pre-Treatment (PT): 900 mg/kg/day oral, days −14 to 28, day 28, sulfate sodium salt",19.0
same,Arthritis score,[5]; [13],10.0
same,Arthritis score,[5]; [14],10.0
same,Arthritis score,[5]; [15],18.1
same,Arthritis score,[5]; [16],22.7
same,Arthritis score,[5]; [17],23.0
same,influence on arthritis score during the study period,"[5]; Treatment-only (T) group, 900 mg/kg/day",did not significantly influence
